Patent publication US7488754B2, “Method for the treatment of polycystic kidney disease” (Wyeth, priority 2002, dated 2009)
Marks after values point to notes of the source that are not given here.

Experiments:
[1] = tested on: cystic bpk mice; test: Treatment of cystic bpk mice (bpk model of ARPKD); format: in vivo
Source text: This model arose from a spontaneous mutation in a colony of BALB/C mice. Affected animals have many similarities to the human disease including collecting tubule (CT) cysts and biliary ectasia and fibrosis. The kidney disease has a consistent and severe phenotype. Mice homozygous for the bpk mutation have microscopic evidence of cyst formation at birth. Proximal tubule (PT) cysts are present at birth, which are gradually replaced by CT cysts as the disease progresses. Cyst expansion and kidney fibrosis result in death due to renal failure at 24-28 days. Heterozygotes show no phenotypic abnormalities and are identified by their ability to breed affected offspring. Unaffected (noncystic) littermates of cystic bpk mice are either wild-type or heterozygous at the bpk locus.
(§1) Cystic bpk mice and phenotypically normal littermates were injected with a dose of 100 mg/kg/dose of 1-acetyl-4-(4-but-2-ynyloxy-benzenesulfonyl)-2,3,4,5-tetrahydro-1 h-[1,4]benzodiazepine-3-carboxylic acid hydroxyamide given intraperitoneally once daily, in a vehicle containing 0.5% methocellulose (Fluka Biochemica, Ronkonkoma, N.Y.) and 2% Tween 80 (J T Baker, Phillipsburg, N.J.), beginning at postnatal day 7. Age-matched untreated cystic bpk mice and their noncystic littermates served as controls. At day 21, mice were sacrificed. Blood was obtained by orbital puncture prior to sacrifice. Kidney weight and body weight for treated and untreated cystic and noncystic mice were measured at sacrifice. Blood urea nitrogen (BUN) was assessed using a calorimetric assay. Serum creatinine was assessed using standard techniques in the hospital laboratory. Differences in clinical and laboratory parameters between treated and untreated cystic and noncystic mice were analyzed by two-tailed Student's t-test.
Kidneys were fixed in 4% paraformaldehyde and embedded in plastic. Segment-specific localization of cysts was assessed using lectins specific to proximal tubule (Lotus tetragonolobus, LTA), and collecting tubule (Dolichos biflorus agglutinin, DBA). Serial LTA and DBA stained sections were examined by light microscopy and assessed for severity of cystic dilatations in PTs and CTs, expressed on a scale of 0 to 5 using a modified cystic index: • 0=No cysts • 1=≦0.11 mm • 2=0.12-0.19 mm • 3=0.20-0.27 mm • 4=0.28-0.35 mm • 5=≧0.36 mm The total number of CT (DBA+/LTA−) cysts and PT (LTA+/DBA−) cysts within a section were counted and expressed as a ratio.
Mice were treated from day 7 of life until day 21, then sacrificed. […] The results are listed below in Tables 1, 2, and 3.

[2] = tested on: noncystic littermates; test: Treatment of noncystic (phenotypically normal) littermates of bpk mice; format: in vivo; details: P-21 noncystic mice
Description: as §1

[3] = target: T1, MMP-1 (Homo sapiens, UniProt P03956); test: MMP activity (IC 50), MMP-1; format: biochemical
T1 sequence (P03956 100-469): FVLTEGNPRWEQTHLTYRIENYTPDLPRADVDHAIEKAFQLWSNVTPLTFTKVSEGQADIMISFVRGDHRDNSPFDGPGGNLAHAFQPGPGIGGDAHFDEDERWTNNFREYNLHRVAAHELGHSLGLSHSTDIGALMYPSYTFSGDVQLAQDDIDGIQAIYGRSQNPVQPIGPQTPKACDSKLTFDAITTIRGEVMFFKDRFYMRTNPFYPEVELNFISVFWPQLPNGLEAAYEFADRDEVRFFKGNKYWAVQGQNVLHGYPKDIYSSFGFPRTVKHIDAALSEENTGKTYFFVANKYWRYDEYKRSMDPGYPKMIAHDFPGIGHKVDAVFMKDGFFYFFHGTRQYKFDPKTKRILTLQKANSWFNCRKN

[4] = target: MMP-9 (Homo sapiens, UniProt P14780); test: MMP activity (IC 50), MMP-9; format: biochemical
[5] = target: MMP-13 (Homo sapiens, UniProt P45452); test: MMP activity (IC 50), MMP-13; format: biochemical
[6] = target: TACE (Homo sapiens, UniProt P78536); test: TACE activity (IC 50); format: biochemical
[7] = tested on: cystic bpk mice; test: Treatment of cystic bpk mice (bpk model of ARPKD); format: in vivo; details: B 50 mg/kg/day once daily IP day 7 to 21
[8] = P-21 cystic bpk mice, 100 mg/kg/dose intraperitoneally once daily from postnatal day 7, sacrifice day 21
[9] = 100 mg/kg/dose intraperitoneally once daily from postnatal day 7, sacrifice day 21

MMP-9, sequence (P14780 94-707): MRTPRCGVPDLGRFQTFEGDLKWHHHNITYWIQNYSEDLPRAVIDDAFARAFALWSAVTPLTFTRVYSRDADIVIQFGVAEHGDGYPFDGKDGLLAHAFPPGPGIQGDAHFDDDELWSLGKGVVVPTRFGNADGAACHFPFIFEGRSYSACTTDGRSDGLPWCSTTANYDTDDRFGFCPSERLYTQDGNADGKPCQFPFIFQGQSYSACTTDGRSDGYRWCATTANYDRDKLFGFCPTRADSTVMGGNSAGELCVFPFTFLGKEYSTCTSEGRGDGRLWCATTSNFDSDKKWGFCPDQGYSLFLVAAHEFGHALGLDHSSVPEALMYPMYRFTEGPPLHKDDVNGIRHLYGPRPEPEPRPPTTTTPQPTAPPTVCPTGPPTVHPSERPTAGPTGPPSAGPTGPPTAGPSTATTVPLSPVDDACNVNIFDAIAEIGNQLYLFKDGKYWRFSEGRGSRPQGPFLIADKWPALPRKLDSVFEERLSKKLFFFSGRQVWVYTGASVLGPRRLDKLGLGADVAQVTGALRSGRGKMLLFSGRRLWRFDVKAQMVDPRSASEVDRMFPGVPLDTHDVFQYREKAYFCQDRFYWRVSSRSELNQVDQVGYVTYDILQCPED
TACE, sequence (P78536 215-824): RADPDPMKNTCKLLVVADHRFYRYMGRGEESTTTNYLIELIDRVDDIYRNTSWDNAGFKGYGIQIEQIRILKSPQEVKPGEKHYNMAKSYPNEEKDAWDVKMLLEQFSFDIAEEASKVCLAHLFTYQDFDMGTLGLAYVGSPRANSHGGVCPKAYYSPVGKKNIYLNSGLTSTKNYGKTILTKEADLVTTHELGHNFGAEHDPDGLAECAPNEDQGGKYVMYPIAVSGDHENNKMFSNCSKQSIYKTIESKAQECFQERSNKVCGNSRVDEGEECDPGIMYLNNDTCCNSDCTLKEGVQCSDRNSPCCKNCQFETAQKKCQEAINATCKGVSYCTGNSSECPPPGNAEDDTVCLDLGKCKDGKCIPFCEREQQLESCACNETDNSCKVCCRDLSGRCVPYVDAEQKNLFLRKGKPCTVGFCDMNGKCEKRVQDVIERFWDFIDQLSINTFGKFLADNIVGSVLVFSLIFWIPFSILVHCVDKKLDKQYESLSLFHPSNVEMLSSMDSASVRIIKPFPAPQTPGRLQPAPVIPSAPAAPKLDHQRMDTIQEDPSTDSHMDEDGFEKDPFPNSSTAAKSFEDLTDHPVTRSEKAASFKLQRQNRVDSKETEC

## CC#CCOc1ccc(S(=O)(=O)N2Cc3ccccc3N(C(C)=O)CC2C(=O)NO)cc1 (stereo not drawn) [A, 1-Acetyl-4-(4-But-2-ynyloxy-Benzenesulfonyl)-2,3,4,5-Tetrahydro-1H-[1,4]Benzodiazepine-3-Carboxylic Acid Hydroxyamide]
[1]; P-21 cystic bpk mice, 100 mg/kg/dose intraperitoneally once daily from postnatal day 7, blood at day 21
  BUN: 33 +/− 4^b** mg/dl
[1]; [8]
  Body Weight: 8.2 +/− 1.3 grams
  Kidney Weight: 0.93 +/− 0.2** grams
  Kidney Weight to Body Weight: 11.2 +/− 1.3** percent
[1]; collecting tubule cysts, DBA stained kidney sections, cystic mice, 100 mg/kg/dose IP once daily day 7 to 21
  CT Cystic Index (graded 1–5): 3.2 +/− 0.4**
[1]; collecting tubule cysts, cystic mice, 100 mg/kg/dose IP once daily day 7 to 21
  CT Cyst Size Range: 0.012–0.29 mm
[1]; cystic bpk mice, A 100 mg/kg/dose IP once daily day 7 to 21
  Cystic Kidney Weight to Body Weight: 11.2 +/− 1.3%
[1]; proximal tubule cysts, LTA stained kidney sections, cystic mice, 100 mg/kg/dose IP once daily day 7 to 21
  PT Cystic Index (graded 1–5): 1.8 +/− 0.4
[1]; proximal tubule cysts, cystic mice, 100 mg/kg/dose IP once daily day 7 to 21
  PT Cyst Size Range: 0.012–0.17 mm
[1]; serum, P-21 cystic bpk mice, 100 mg/kg/dose intraperitoneally once daily from postnatal day 7, blood at day 21
  Creatinine: 0.18 +/− 0.05^b mg/dl
[1]; total number of CT cysts to PT cysts within a section, cystic mice, 100 mg/kg/dose IP once daily day 7 to 21
  Cystic CT/PT Ratio: 1.2**
[2]; 100 mg/kg/dose intraperitoneally once daily from postnatal day 7, blood at day 21
  BUN: 17 +/− 4^d mg/dl
[2]; [9]
  Body Weight: 8.5 +/− 1.0 grams
  Kidney Weight: 0.13 +/− 0.01 grams
  Kidney Weight to Body Weight: 1.5 +/− 0.1%
[2]; serum, 100 mg/kg/dose intraperitoneally once daily from postnatal day 7, blood at day 21
  Creatinine: 0.15 +/− 0.05^e mg/dl
[3]
  IC50: 6.6 nM
[4]
  IC50: 12 nM
[5]
  IC50: 3 nM
[6]
  IC50: 8.4 nM

## O=C(NO)C1(S(=O)(=O)c2ccc(Oc3ccc(Cl)cc3)cc2)CCN(Cc2ccccc2)CC1 [B, 1-Benzyl-4-[4-(4-chloro-phenoxy)-benzenesulfonyl]-piperidine-4-carboxylic acid hydroxamide]
[7]
  Cystic Kidney Weight to Body Weight: 15.3 +/− 1.7%
